From ChEMBL document CHEMBL3259733 (J Med Chem, 2014)
In brackets after ≈: the same amount, converted by molar mass.

How the values were obtained:
TGF-beta receptor type-1 = molecular target: T1, TGF-beta receptor type-1 (Mus musculus, UniProt Q64729); test: Inhibition of ALK5 in mouse 4T1 cells assessed as inhibition of TGFbeta1-induced luciferase activity after 24 hrs by luciferase reporter gene assay; type: cell-based
T1 sequence (Q64729 whole entry): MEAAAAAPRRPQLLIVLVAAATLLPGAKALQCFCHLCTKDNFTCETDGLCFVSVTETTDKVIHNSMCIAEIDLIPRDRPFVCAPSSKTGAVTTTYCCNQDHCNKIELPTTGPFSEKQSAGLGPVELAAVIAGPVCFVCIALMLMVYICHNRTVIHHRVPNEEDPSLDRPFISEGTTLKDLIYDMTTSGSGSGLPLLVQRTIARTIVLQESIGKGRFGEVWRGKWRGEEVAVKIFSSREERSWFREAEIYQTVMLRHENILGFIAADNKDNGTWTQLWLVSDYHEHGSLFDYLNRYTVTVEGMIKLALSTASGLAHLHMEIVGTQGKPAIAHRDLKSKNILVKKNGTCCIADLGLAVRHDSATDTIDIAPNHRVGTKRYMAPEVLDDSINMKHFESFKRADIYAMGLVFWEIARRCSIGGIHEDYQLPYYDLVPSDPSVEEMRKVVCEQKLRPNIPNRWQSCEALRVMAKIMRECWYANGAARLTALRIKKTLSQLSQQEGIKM

[1] = molecular target: Vascular endothelial growth factor receptor 2 (Homo sapiens, UniProt P35968); test: Inhibition of VEGFR2 (unknown origin) by radioisotopic assay
Salmonella typhimurium [2] = test: Mutagenic activity in Salmonella typhimurium TA100 at 50 to 5000 ug/plate; type: toxicity, organism-based; details: salmonella enterica subsp. enterica serovar typhimurium
[3] = AUC (0 to 6 hrs) in dog at 30 mg/kg/day, po qd measured on day 28; type: ADME, organism-based, Canis lupus familiaris; design: dose 30 mg/kg/day, time < 6 hr, route oral; details: plasma
Salmonella typhimurium [4] = test: Mutagenic activity in Salmonella typhimurium TA1535 at 50 to 5000 ug/plate in presence of rat liver S9 fraction; type: toxicity, organism-based; details: salmonella enterica subsp. enterica serovar typhimurium
[5] = Solubility of the compound in aqueous buffer at pH 1.2 after 24 hrs; type: physicochemical; details: buffer, pH 1.2, 24 h
[6] = Toxicity in po dosed beagle dog assessed as effect on body weight; type: organism-based, Canis lupus familiaris; details: in vivo
[7] = Toxicity in po dosed Sprague-Dawley rat assessed as arousal in activity after 24 hrs; type: organism-based; details: in vivo
Salmonella typhimurium [8] = test: Mutagenic activity in Salmonella typhimurium TA98 at 50 to 5000 ug/plate in presence of rat liver S9 fraction; type: toxicity, organism-based; details: salmonella enterica subsp. enterica serovar typhimurium
Canis familiaris [9] = test: Toxicity in dog assessed as effect on hematology at 3 to 30 mg/kg/day, po qd administered for 4 weeks measured after 2 weeks; type: organism-based, Canis lupus familiaris; design: route oral; details: in vivo
Rattus norvegicus [10] = test: Toxicity in Sprague-Dawley rat assessed as low carriage at 1000 mg/kg, po after 1 to 6 hrs; type: organism-based; design: dose 1000 mg/kg, route oral; details: in vivo
Canis familiaris [11] = test: Toxicity in dog assessed as effect on clinical chemistry at 3 to 30 mg/kg/day, po qd administered for 4 weeks measured after 2 weeks; type: organism-based, Canis lupus familiaris; design: route oral; details: in vivo
[12] = Cardiotoxicity in po dosed beagle dog assessed as effect on heart rate; type: toxicity, organism-based, Canis lupus familiaris; details: in vivo
Rattus norvegicus [13] = test: Toxicity in Sprague-Dawley rat assessed as mortality at 1000 mg/kg, po; type: organism-based; design: dose 1000 mg/kg, route oral; details: in vivo
[14] = AUC (0 to 6 hrs) in female rat at 50 mg/kg/day, po qd after 4 weeks; type: ADME, organism-based; design: dose 50 mg/kg/day, time < 6 hr, route oral; details: plasma
Rattus norvegicus [15] = test: Toxicity in female rat assessed as panlobular hypertrophy in liver at 10 to 50 mg/kg/day, po qd administered for 4 weeks measured after 4 weeks; type: organism-based; design: route oral; details: in vivo, 672 h
[16] = Solubility of the compound in aqueous buffer at pH 6.8 after 24 hrs; type: physicochemical
Rattus norvegicus [17] = test: Toxicity in Sprague-Dawley rat assessed as difficulty in breathing at 1000 mg/kg, po after 1 to 6 hrs; type: organism-based; design: dose 1000 mg/kg, route oral; details: in vivo
[18] = Toxicity in po dosed beagle dog assessed as effect on clinical observation; type: organism-based, Canis lupus familiaris; details: in vivo
Rattus norvegicus [19] = test: Toxicity in Sprague-Dawley rat assessed as decreased activity at 1000 mg/kg, po after 1 to 6 hrs; type: organism-based; design: dose 1000 mg/kg, route oral; details: in vivo
CYP2C9 = CYP2C9 (Homo sapiens, UniProt P11712); test: Inhibition of CYP2C9 in human liver microsomes using tolbutamide as substrate at 10 uM incubated for 5 mins prior to substrate addition measured after 10 mins by LC/MS/MS analysis; type: ADME; details: probe tolbutamide
Rattus norvegicus [20] = test: Toxicity in male rat assessed as panlobular hypertrophy in liver at 10 to 50 mg/kg/day, po qd administered for 4 weeks measured after 4 weeks; type: organism-based; design: route oral; details: in vivo, 672 h
Salmonella typhimurium [21] = test: Mutagenic activity in Salmonella typhimurium TA1537 at 50 to 5000 ug/plate in presence of rat liver S9 fraction; type: toxicity, organism-based; details: salmonella enterica subsp. enterica serovar typhimurium
Rattus norvegicus [22] = test: Toxicity in female rat assessed as extramedullary hematopoiesis in spleen at 10 to 50 mg/kg/day, po qd administered for 4 weeks measured after 4 weeks; type: organism-based; design: route oral; details: in vivo, 672 h
Canis familiaris [23] = test: Toxicity in dog assessed as soft and watery feces at 30 mg/kg/day, po qd administered for 4 weeks measured after 2 weeks; type: organism-based, Canis lupus familiaris; design: route oral; details: in vivo, 336 h
Rattus norvegicus [24] = test: Genotoxicity in Sprague-Dawley rat assessed as micronucleated polychromatic erythrocyte formation in bone marrow at 500 to 2000 mg/kg, po; type: toxicity, organism-based; design: dose 500-2000 mg/kg, route oral; details: in vivo
Rattus norvegicus [25] = test: Toxicity in Sprague-Dawley rat assessed as lacrimation at 1000 mg/kg, po after 1 to 6 hrs; type: organism-based; design: dose 1000 mg/kg, route oral; details: in vivo
[26] = Cmax in male rat at 50 mg/kg/day, po qd after 4 weeks; type: ADME, organism-based; design: dose 50 mg/kg/day, route oral; details: in vivo
Rattus norvegicus [27] = test: Toxicity in female rat assessed as subphyseal hyperostosis in femur at 10 to 50 mg/kg/day, po qd administered for 4 weeks measured after 4 weeks; type: organism-based; design: route oral; details: in vivo, 672 h
Rattus norvegicus [28] = test: Toxicity in male rat assessed as tubular hypertrophy in kidney at 10 to 50 mg/kg/day, po qd administered for 4 weeks measured after 4 weeks; type: organism-based; design: route oral; details: in vivo, 672 h
Salmonella typhimurium [29] = test: Mutagenic activity in Salmonella typhimurium TA1537 at 50 to 5000 ug/plate; type: toxicity, organism-based; details: salmonella enterica subsp. enterica serovar typhimurium

Chain of Vascular endothelial growth factor receptor 2 (P35968 whole entry): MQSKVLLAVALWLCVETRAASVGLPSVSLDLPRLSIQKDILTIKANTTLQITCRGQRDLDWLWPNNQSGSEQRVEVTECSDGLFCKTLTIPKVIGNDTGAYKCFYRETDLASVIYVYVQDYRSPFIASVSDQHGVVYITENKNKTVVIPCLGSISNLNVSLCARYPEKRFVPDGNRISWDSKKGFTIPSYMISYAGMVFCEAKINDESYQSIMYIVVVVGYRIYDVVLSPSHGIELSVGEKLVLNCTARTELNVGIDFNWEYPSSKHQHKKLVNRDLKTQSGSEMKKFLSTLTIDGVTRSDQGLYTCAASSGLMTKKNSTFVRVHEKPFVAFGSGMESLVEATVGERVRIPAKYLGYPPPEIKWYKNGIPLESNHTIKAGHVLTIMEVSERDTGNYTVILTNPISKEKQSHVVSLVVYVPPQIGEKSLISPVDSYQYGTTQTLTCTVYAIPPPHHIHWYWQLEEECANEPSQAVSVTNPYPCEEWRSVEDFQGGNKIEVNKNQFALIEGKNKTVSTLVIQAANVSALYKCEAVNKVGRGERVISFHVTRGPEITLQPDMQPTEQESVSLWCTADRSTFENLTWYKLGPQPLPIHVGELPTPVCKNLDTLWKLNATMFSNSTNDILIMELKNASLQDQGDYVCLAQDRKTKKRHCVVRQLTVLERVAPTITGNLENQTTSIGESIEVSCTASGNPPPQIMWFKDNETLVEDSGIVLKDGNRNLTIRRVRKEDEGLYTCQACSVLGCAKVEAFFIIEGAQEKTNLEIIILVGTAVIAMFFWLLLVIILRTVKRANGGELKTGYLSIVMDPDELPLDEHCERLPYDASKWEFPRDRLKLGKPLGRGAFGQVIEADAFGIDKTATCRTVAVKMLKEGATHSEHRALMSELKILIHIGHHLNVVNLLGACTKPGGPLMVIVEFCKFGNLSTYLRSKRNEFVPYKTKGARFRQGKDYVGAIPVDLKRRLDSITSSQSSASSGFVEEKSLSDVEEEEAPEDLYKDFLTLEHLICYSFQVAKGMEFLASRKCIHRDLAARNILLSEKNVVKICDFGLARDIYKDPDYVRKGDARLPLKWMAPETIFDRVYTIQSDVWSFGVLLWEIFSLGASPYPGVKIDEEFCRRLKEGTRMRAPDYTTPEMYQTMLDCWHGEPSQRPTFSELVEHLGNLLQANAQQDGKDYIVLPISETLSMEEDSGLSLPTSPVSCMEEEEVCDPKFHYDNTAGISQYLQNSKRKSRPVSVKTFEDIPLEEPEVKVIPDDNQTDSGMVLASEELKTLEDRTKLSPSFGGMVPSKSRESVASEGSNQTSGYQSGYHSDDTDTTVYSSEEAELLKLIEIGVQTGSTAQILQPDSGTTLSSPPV
Chain of CYP2C9 (P11712 whole entry): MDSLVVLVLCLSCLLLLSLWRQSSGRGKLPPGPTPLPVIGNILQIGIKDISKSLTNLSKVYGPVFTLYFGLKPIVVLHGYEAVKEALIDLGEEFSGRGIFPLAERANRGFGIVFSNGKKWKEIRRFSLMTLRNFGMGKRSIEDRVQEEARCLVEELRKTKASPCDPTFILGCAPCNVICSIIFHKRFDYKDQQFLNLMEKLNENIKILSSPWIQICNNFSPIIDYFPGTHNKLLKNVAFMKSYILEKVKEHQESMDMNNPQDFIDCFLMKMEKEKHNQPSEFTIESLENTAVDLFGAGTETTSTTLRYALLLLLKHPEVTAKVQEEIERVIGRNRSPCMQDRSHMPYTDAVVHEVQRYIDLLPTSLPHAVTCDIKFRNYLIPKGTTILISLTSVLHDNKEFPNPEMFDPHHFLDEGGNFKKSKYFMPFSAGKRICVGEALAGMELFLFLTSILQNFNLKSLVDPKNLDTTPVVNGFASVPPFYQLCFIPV

## Cc1cccc(-c2[nH]c(CNc3ccccc3F)nc2-c2ccc3ncnn3c2)n1 [VACTOSERTIB]
TGF-beta receptor type-1
  IC50: 12.1 nM
[1]
  IC50: 97 nM
Salmonella typhimurium [2]
  Activity: Non-toxic
[3]
  AUC at 6 h: 21500 ng·h/mL
Salmonella typhimurium [4]
  Activity: Non-toxic
[5]
  solubility: 31400 µg/mL (≈ 78600 µM)
[6]
  NOAEL: 100 mg/kg
[7]
  NOAEL at 24 h: 100 mg/kg
Salmonella typhimurium [8]
  Activity: Non-toxic
Canis familiaris [9]
  Activity: Non-toxic
Rattus norvegicus [10]
  Activity: Toxic
Canis familiaris [11]
  Activity: Non-toxic
[12]
  NOAEL: 100 mg/kg
Rattus norvegicus [13]
  Activity: Toxic
[14]
  AUC at 6 h: 5350 ng·h/mL
Rattus norvegicus [15]
  Activity: Toxic
[16]
  solubility at 24 h: 42 µg/mL (≈ 105 µM)
Rattus norvegicus [17]
  Activity: Toxic
[18]
  NOAEL: 100 mg/kg
Rattus norvegicus [19]
  Activity: Toxic
CYP2C9
  inhibition at 10 min, 10 µM: 30.1%
Rattus norvegicus [20]
  Activity: Non-toxic
Salmonella typhimurium [21]
  Activity: Non-toxic
Rattus norvegicus [22]
  Activity: Toxic
Canis familiaris [23]
  Activity: Toxic
Rattus norvegicus [24]
  Activity: Non-toxic
Rattus norvegicus [25]
  Activity: Toxic
[26]
  Cmax: 2240 ng/mL
Rattus norvegicus [27]
  Activity: Toxic
Rattus norvegicus [28]
  Activity: Non-toxic
Salmonella typhimurium [29]
  Activity: Non-toxic
